# Assay results taken from patent US12404268B2, “2-heteroaryl aminoquinazolinone derivative” (Sumitomo Pharma Co., Ltd., priority 2020, dated 2025).
# Test system: neurons induced to differentiate from SCN1A gene deficient human iPS cells
# Experiment: Test for measuring hyperexcitation suppression activity (spontaneous calcium oscillation frequency)
# Type: cell-based
# Conditions: Homo sapiens, Neuron; @1 μM; read-out: inhibition rate
# Text: Test for Measuring Hyperexcitation Suppression Activity Using Neurons Induced to Differentiate from SCN1A Gene Deficient Human iPS Cells
# (1) Induction of Differentiation from Human iPS cells to Neurons
# Half of the culture solution was exchanged once every 3 to 4 days.
# (2) Fluorescent Calcium Probe Treatment, Addition of Compound, and Evaluation of Intracellular Calcium Concentration
# Half of the culture solution was removed on day 60 from induction of differentiation or thereafter. A medium for measurement comprising a fluorescent calcium probe (Molecular Device, product name: FLIPR Calcium 6 Assay Bulk Kit, cat #R8191) was added at an amount equal to the remaining medium. The culture was left standing for 30 minutes and subjected to measurement.
# The test compounds were serially diluted with a dimethyl sulfoxide (DMSO) solution so that the final concentration would be 0.1 to 100 μM to prepare a concentrate with a concentration that is 6-fold of the final concentration.
# The intensity of fluorescence of a calcium probe was measured over time with FDSS7000EX (Hamamatsu Photonics) to evaluate the change in intracellular calcium concentrations. First, the intensity of fluorescence was measured for 2 minutes. The compound solutions were then added using FDSS7000EX for an additional 8 minute measurement of fluorescence intensity. The frequency of spontaneous calcium oscillation was quantified as an indicator of nerve excitation. With the frequency for 2 minutes before the addition of the compound solutions as 100%, the ratio of frequency for the last 2 minutes after addition of the compound solutions was calculated.
row,SMILES,inhibition at 1 µM [%]
1,Cn1nccc1-n1c(Nc2cccnc2)nc2ccc(F)cc2c1=O [Example 150],26
2,O=c1c2cc(F)ccc2nc(Nc2cccnc2)n1C1(c2ccccc2)CC1 [Example 153],99
3,O=c1c2cc(F)ccc2nc(Nc2cccnc2)n1-c1ccsc1 [Example 161],35
4,C[C@@H](c1ccccc1)n1c(Nc2cccnc2)nc2ccc(F)cc2c1=O [Example 163],70
5,O=c1c2cc(F)ccc2nc(Nc2cccnc2)n1C1(c2ccccc2)COC1 [Example 168],58
6,Cc1nc(Nc2nc3ccc(F)cc3c(=O)n2-c2ccccc2)cs1 [Example 174],78
7,O=c1c2cc(F)ccc2nc(Nc2cccnc2)n1[C@H]1CC[C@H](O)CC1 [Example 180],35
8,CN(C)c1cccc(-n2c(Nc3cccnc3)nc3ccc(F)cc3c2=O)c1 [Example 181],73

# Same assay, conditions: Homo sapiens, Neuron; @10 μM; read-out: inhibition rate
row,SMILES,inhibition at 10 µM [%]
1,COc1ccc(Nc2nc3ccc(F)cc3c(=O)n2-c2ccccc2)nc1 [Example 149],32
2,O=c1c2cc(F)ccc2nc(Nc2cccnc2)n1Cc1ccccc1 [Example 151],2
3,O=c1c2cccnc2nc(Nc2cccnc2)n1-c1ccccc1 [Example 152],15
4,Cc1nn(C)c(C)c1-n1c(Nc2cccnc2)nc2ccc(F)cc2c1=O [Example 154],98
5,O=c1c2cc(F)ccc2nc(Nc2cccnc2)n1CC1CCCCC1 [Example 155],81
6,CN1CCC(Cn2c(Nc3cccnc3)nc3ccc(F)cc3c2=O)CC1 [Example 156],95
7,O=c1c2cc(F)ccc2nc(Nc2cccnc2)n1Cc1ccccn1 [Example 157],90
8,O=c1c2cc(F)ccc2nc(Nc2cccnc2)n1CCc1ccccc1 [Example 158],100
9,O=c1c2cc(F)ccc2nc(Nc2cccnc2)n1CCN1CCCC1 [Example 159],56
10,O=c1c2cc(F)ccc2nc(Nc2cccnc2)n1-c1cncs1 [Example 160],58
11,O=c1c2cc(F)cnc2nc(Nc2cccnc2)n1-c1ccccc1 [Example 162],39
12,O=c1c2cc(F)ccc2nc(Nc2cccnc2)n1[C@H]1CCCOC1 [Example 164],92
13,O=c1c2cc(F)ccc2nc(Nc2cccnc2)n1C1CC1 [Example 165],100
14,C[C@@H]1CN(C)CC[C@H]1n1c(Nc2cccnc2)nc2ccc(F)cc2c1=O [Example 166],36
15,Cc1ccccc1C1(n2c(Nc3cccnc3)nc3ccc(F)cc3c2=O)CC1 [Example 167],100
16,O=c1c2cc(F)ccc2nc(Nc2ccsc2)n1-c1ccccc1 [Example 169],100
17,O=c1c2cc(F)ccc2nc(Nc2cccnc2)n1C1(c2ccccc2)CNC1 [Example 175],25
18,CN1CC(c2ccccc2)(n2c(Nc3cccnc3)nc3ccc(F)cc3c2=O)C1 [Example 176],88
19,O=c1c2cc(F)ccc2nc(Nc2cnsc2)n1-c1ccccc1 [Example 178],76
20,NCCn1c(Nc2cccnc2)nc2ccc(F)cc2c1=O [Example 179],98
21,Cn1ccc(Nc2nc3ccc(F)cc3c(=O)n2-c2ccccc2)c1 [Example 182],72
22,COc1cncc(-n2c(Nc3cccnc3)nc3ccc(F)cc3c2=O)c1 [Example 185],31
23,Cn1cc(Nc2nc3ccc(Cl)cc3c(=O)n2-c2ccccc2)cn1 [Example 186],100
24,O=c1c2cc(Cl)ccc2nc(Nc2nncs2)n1-c1ccccc1 [Example 229],5

# Same assay, conditions: Homo sapiens, Neuron; @100 μM; read-out: inhibition rate
row,SMILES,inhibition at 100 µM [%]
1,O=c1c2cc(F)ccc2nc(Nc2cccnc2)n1C1CCN(C2CC2)CC1 [Example 170],100
2,O=c1c2cc(F)ccc2nc(Nc2cccnc2)n1CCC(F)(F)F [Example 171],100
3,O=c1c2cc(F)ccc2nc(Nc2cnoc2)n1-c1ccccc1 [Example 172],100
4,O=c1c2cc(F)ccc2nc(Nc2cccnc2)n1CCO [Example 173],6
5,Nc1ccc2nc(Nc3cccnc3)n(-c3ccccc3)c(=O)c2c1 [Example 177],100
6,CO[C@H]1CN(C)CC[C@H]1n1c(Nc2cccnc2)nc2ccc(F)cc2c1=O [Example 183],13
7,O=c1c2cc(F)ccc2nc(Nc2cccnc2)n1-c1cncc(F)c1 [Example 184],54

# Same assay, conditions: Neuron; SCN1A gene deficient human iPS cell-derived neurons; FLIPR Calcium 6, FDSS7000EX; read-out: IC50 (50% inhibitory concentration, frequency of spontaneous calcium oscillation)
row,SMILES,IC50 [µM]
1,COc1ccnc(Nc2nc3ccc(F)cc3c(=O)n2-c2ccccc2)c1 [Example 187],> 10
2,COc1cccnc1Nc1nc2ccc(F)cc2c(=O)n1-c1ccccc1 [Example 188],> 10
3,O=c1c2cnccc2nc(Nc2cccnc2)n1-c1ccccc1 [Example 189],> 10
4,O=c1c2cc(F)ncc2nc(Nc2cccnc2)n1-c1ccccc1 [Example 190],> 10
5,O=c1c2ncccc2nc(Nc2cccnc2)n1-c1ccccc1 [Example 191],> 10
6,O=c1c2ccncc2nc(Nc2cccnc2)n1-c1ccccc1 [Example 192],> 10
7,Cc1cc2nc(Nc3cccnc3)n(-c3ccccc3)c(=O)c2cn1 [Example 193],> 10
8,Cc1cc2c(=O)n(-c3ccccc3)c(Nc3cccnc3)nc2cn1 [Example 194],> 10
9,Cc1noc(C)c1-n1c(Nc2cccnc2)nc2ccc(F)cc2c1=O [Example 195],> 10
10,CC1(n2c(Nc3cccnc3)nc3ccc(F)cc3c2=O)CC1 [Example 196],> 10
11,O=c1c2cc(F)ncc2nc(Nc2cccnc2)n1CCc1ccccn1 [Example 197],> 10
12,Cc1ccc2nc(Nc3cccnc3)n(-c3ccccc3)c(=O)c2n1 [Example 198],> 10
13,O=c1c2cc(F)ccc2nc(Nc2cccnc2)n1[C@H]1CCOC1 [Example 199],> 10
14,CO[C@H]1CC[C@H](n2c(Nc3cccnc3)nc3ccc(F)cc3c2=O)CC1 [Example 200],> 10
15,C[C@H]1CC[C@H](n2c(Nc3cccnc3)nc3ccc(F)cc3c2=O)CC1 [Example 201],> 10
16,Cc1cnc2nc(Nc3cccnc3)n(-c3ccccc3)c(=O)c2c1 [Example 202],> 10
17,COCCn1c(Nc2cccnc2)nc2ccc(F)cc2c1=O [Example 203],> 10
18,O=c1c2cc(F)ccc2nc(Nc2cccnc2)n1C1COC1 [Example 204],> 10
19,O=c1c2cc(F)ccc2nc(Nc2cccnc2)n1C1(c2ccccc2)CCC1 [Example 205],> 10
20,O=c1c2cc(F)ccc2nc(Nc2cccnc2)n1C1(c2ccccn2)CC1 [Example 206],> 100
21,CN(C)CCn1c(Nc2cccnc2)nc2ccc(F)cc2c1=O [Example 207],> 10

row,SMILES,IC50 [µM]
1,CN1C[C@H]2CC[C@@H](C1)[C@@H]2n1c(Nc2cccnc2)nc2ccc(F)cc2c1=O [Example 208],> 100
2,O=c1c2cc(F)ccc2nc(Nc2csc(Cl)c2)n1-c1ccccc1 [Example 209],> 100
3,CC(=O)Nc1ccc2nc(Nc3cccnc3)n(-c3ccccc3)c(=O)c2c1 [Example 210],> 100
4,CS(=O)(=O)Nc1ccc2nc(Nc3cccnc3)n(-c3ccccc3)c(=O)c2c1 [Example 211],> 100
5,CN(C)c1ccc2nc(Nc3cccnc3)n(-c3ccccc3)c(=O)c2c1 [Example 212],> 10
6,CN(C)C(=O)c1ccc2nc(Nc3cccnc3)n(-c3ccccc3)c(=O)c2c1 [Example 213],> 100
7,Cc1ccccc1-n1c(Nc2cccnc2)nc2ccc(S(C)(=O)=O)cc2c1=O [Example 214],> 100
8,CN(C)c1cncc(-n2c(Nc3cccnc3)nc3ccc(F)cc3c2=O)c1 [Example 215],> 10
9,CN(C)c1cncc(Nc2nc3ccc(F)cc3c(=O)n2-c2ccccc2)c1 [Example 216],> 100
10,O=c1c2cc(Cl)ccc2nc(Nc2cn[nH]c2)n1-c1ccccc1 [Example 217],> 10
11,COc1cncc(Nc2nc3ccc(Cl)cc3c(=O)n2-c2ccccc2)c1 [Example 218],> 10
12,O=c1c2cccc(Cl)c2nc(Nc2cccnc2)n1-c1ccccc1 [Example 219],> 100
13,COc1cc2nc(Nc3cccc4ncccc34)n(C)c(=O)c2cc1OC [Example 220],> 10
14,NC(=O)c1ccc(Nc2nc3ccc(Cl)cc3c(=O)n2-c2ccccc2)nc1 [Example 221],> 10
15,O=c1c2ccc(F)cc2nc(Nc2cccnc2)n1-c1ccccc1 [Example 222],> 100
16,Cc1cccc2nc(Nc3cccnc3)n(-c3ccccc3)c(=O)c12 [Example 223],> 100
17,Cc1cccc2c(=O)n(-c3ccccc3)c(Nc3cccnc3)nc12 [Example 224],> 100
18,COc1ccc2c(=O)n(-c3ccccc3)c(Nc3cccnc3)nc2c1 [Example 225],> 100
19,O=c1c2ccc(F)cc2nc(Nc2cncc(F)c2)n1-c1ccccc1 [Example 226],> 100
20,COc1cc(Nc2nc3ccc(F)cc3c(=O)n2-c2ccccc2)ccn1 [Example 227],> 100
21,O=c1c2cc(Cl)ccc2nc(Nc2nnco2)n1-c1ccccc1 [Example 228],> 10
